ChEMBL document CHEMBL1201862, “PubChem BioAssay data set” (2004)
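How tested: cells in 96-well plates exposed to compound for 48 hours at five concentrations. GI50: concentration for 50% inhibition of growth.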 The source made the active and inactive calls. No stated cut-off is given here; in the data, active = GI50 up to about 1.1 µM and inactive = higher.

What was measured:
Assay in all cases: NCI anticancer screen, dose series, 48 h
786-0 = test system: 786-0
A498 = test system: A498
A549 = test system: A549
ACHN = test system: ACHN
BT-549 = test system: BT-549
CAKI-1 = test system: CAKI-1
CCRF-CEM = test system: CCRF-CEM
COLO 205 = test system: COLO 205
DMS-114 = test system: DMS-114
DMS-273 = test system: DMS-273
DU-145 = test system: DU-145
EKVX = test system: EKVX
HCC 2998 = test system: HCC 2998
HCT-116 = test system: HCT-116
HCT-15 = test system: HCT-15
HL-60 = test system: HL-60
HOP-62 = test system: HOP-62
HOP-92 = test system: HOP-92
HT-29 = test system: HT-29
IGROV-1 = test system: IGROV-1
K562 = test system: K562
KM-20L2 = test system: KM-20L2
KM12 = test system: KM12
LOX IMVI = test system: LOX IMVI
LXFL 529 = test system: LXFL 529
M14 = test system: M14
M19-MEL = test system: M19-MEL
MCF7 = test system: MCF7
MDA-MB-231 = test system: MDA-MB-231
MDA-MB-435 = test system: MDA-MB-435
MDA-N = test system: MDA-N
MOLT-4 = test system: MOLT-4
Malme-3M = test system: Malme-3M
NCI-H226 = test system: NCI-H226
NCI-H23 = test system: NCI-H23
NCI-H460 = test system: NCI-H460
NCI-H522 = test system: NCI-H522
NCI/ADR-RES = test system: NCI/ADR-RES
OVCAR-3 = test system: OVCAR-3
OVCAR-4 = test system: OVCAR-4
OVCAR-5 = test system: OVCAR-5
OVCAR-8 = test system: OVCAR-8
PC-3 = test system: PC-3
RPMI-8226 = test system: RPMI-8226
RXF 393 = test system: RXF 393
SF-268 = test system: SF-268
SF-295 = test system: SF-295
SF-539 = test system: SF-539
SK-MEL-28 = test system: SK-MEL-28
SK-MEL-2 = test system: SK-MEL-2
SK-MEL-5 = test system: SK-MEL-5
SK-OV-3 = test system: SK-OV-3
SN12C = test system: SN12C
SNB-19 = test system: SNB-19
SNB-75 = test system: SNB-75
SNB-78 = test system: SNB-78
SR = test system: SR
SW-620 = test system: SW-620
T47D = test system: T47D
TK-10 = test system: TK-10
U-251 = test system: U-251
UACC-257 = test system: UACC-257
UACC-62 = test system: UACC-62
UO-31 = test system: UO-31

With CC(C)Cn1cnc2c(Sc3c([N+](=O)[O-])ncn3C)nc(N)nc21 the GI50 (786-0) was > 61 µM (inactive), the GI50 (A498) was > 100 µM (inactive) and the GI50 (A549) was > 67.9 µM (inactive). For the same compound, the GI50 (ACHN) was > 63.8 µM (inactive), the GI50 (BT-549) was 42.5 µM (inactive) and the GI50 (CAKI-1) was 22.8 µM (inactive). The GI50 (CCRF-CEM) was 38.6 µM (inactive), the GI50 (COLO 205) was > 25.6 µM (inactive) and the GI50 (DMS-114) was > 100 µM (inactive). The GI50 (DMS-273) was > 100 µM (inactive), the GI50 (DU-145) was 28.5 µM (inactive) and the GI50 (EKVX) was > 50.8 µM (inactive). The GI50 (HCC 2998) was > 62.7 µM (inactive), the GI50 (HCT-116) was > 60.1 µM (inactive) and the GI50 (HCT-15) was greater than 59.8 µM. The GI50 (HL-60) was 30.3 µM (inactive), the GI50 (HOP-62) was > 80.4 µM (inactive) and the GI50 (HOP-92) was 14.9 µM (inactive). The GI50 (HT-29) was > 100 µM (inactive), the GI50 (IGROV-1) was > 47.5 µM (inactive) and the GI50 (K562) was > 47.3 µM (inactive). For the same compound, the GI50 (KM-20L2) was > 100 µM (inactive), the GI50 (KM12) was > 100 µM (inactive) and the GI50 (LOX IMVI) was > 59.8 µM (inactive). For the same compound, the GI50 (LXFL 529) was > 100 µM (inactive), the GI50 (M14) was > 52.2 µM (inactive) and the GI50 (M19-MEL) was > 100 µM (inactive). For the same compound, the GI50 (MCF7) was 27.6 µM (inactive), the GI50 (MDA-MB-231) was 64.4 µM (inactive) and the GI50 (MDA-MB-435) was 37.5 µM (inactive). For the same compound, the GI50 (MDA-N) was 36.1 µM (inactive), the GI50 (MOLT-4) was > 42.2 µM (inactive) and the GI50 (Malme-3M) was 30.8 µM (inactive). For the same compound, the GI50 (NCI-H226) was > 100 µM (inactive), the GI50 (NCI-H23) was > 65.5 µM (inactive) and the GI50 (NCI-H460) was > 63 µM (inactive). For the same compound, the GI50 (NCI-H522) was 26.3 µM (inactive), the GI50 (NCI/ADR-RES) was > 100 µM (inactive) and the GI50 (OVCAR-3) was > 35 µM (inactive). The GI50 (OVCAR-4) was 23.6 µM (inactive), the GI50 (OVCAR-5) was > 100 µM (inactive) and the GI50 (OVCAR-8) was > 61.4 µM (inactive). The GI50 (PC-3) was 26.1 µM (inactive), the GI50 (RPMI-8226) was > 52.7 µM (inactive) and the GI50 (RXF 393) was > 56.1 µM (inactive). The GI50 (SF-268) was > 100 µM (inactive), the GI50 (SF-295) was > 100 µM (inactive) and the GI50 (SF-539) was > 23.7 µM (inactive). For the same compound, the GI50 (SK-MEL-28) was > 60.7 µM (inactive), the GI50 (SK-MEL-2) was 22 µM (inactive) and the GI50 (SK-MEL-5) was 15.2 µM (inactive). The GI50 (SK-OV-3) was > 100 µM (inactive), the GI50 (SN12C) was > 64.6 µM (inactive) and the GI50 (SNB-19) was > 100 µM (inactive). For the same compound, the GI50 (SNB-75) was > 59.8 µM (inactive), the GI50 (SNB-78) was > 100 µM (inactive) and the GI50 (SR) was 38.7 µM (inactive). The GI50 (SW-620) was > 61.5 µM (inactive), the GI50 (T47D) was 30.4 µM (inactive) and the GI50 (TK-10) was > 41.1 µM (inactive). The GI50 (U-251) was > 87.1 µM (inactive), the GI50 (UACC-257) was > 49.3 µM (inactive) and the GI50 (UACC-62) was > 50.2 µM (inactive). For the same compound, the GI50 (UO-31) was > 38 µM (inactive).
